Reference: patent US20230348362A1, “LIPID COMPOUNDS AND LIPID NANOPARTICLE COMPOSITIONS” (Suzhou Abogen Biosciences Co., Ltd., priority 2021, published 2023)

Legend:
Type in all cases: physicochemical
[1] = Lipid nanoparticle size and polydispersity by dynamic light scattering; conditions: LNP of lipid/DSPC/cholesterol/PEG-lipid 50:10:38.5:1.5 encapsulating hEPO mRNA
Method in brief: (§1)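 LNPs made from ionizable lipid/DSPC/cholesterol/PEG-lipid (50:10:38.5:1.5) and mRNA in citrate pH 4 by microfluidic mixing, lipid:mRNA about 10:1–30:1 w/w, then dialysed into DPBS and filtered. Size and PDI measured by DLS in backscatter mode; encapsulation efficiency measured by RiboGreen assay.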

[2] = Apparent pKa of LNP formulations, TNS fluorescence assay; conditions: LNP cationic lipid/DSPC/cholesterol/DMG-PEG 50/10/38.5/1.5 mol %
Method in brief: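 LNPs (cationic lipid/DSPC/cholesterol/DMG-PEG 50/10/38.5/1.5 mol %) diluted to 0.1 mg/mL total lipid in citrate/phosphate/borate/NaCl buffers spanning pH 3–9 with TNS. Fluorescence (ex 325, em 435 nm) read at room temperature; pKa taken as the pH at half-maximal intensity from sigmoidal fit.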

[3] = Encapsulation efficiency of lipid nanoparticles, Quant-it Ribogreen RNA assay; conditions: LNP of lipid/DSPC/cholesterol/PEG-lipid 50:10:38.5:1.5 encapsulating hEPO mRNA
Method in brief: as §1

Compound | polydispersity [1] | size (nm) [1] [nm] | Apparent Pka [2] | Encapsulation Efficiency [3] [%]
CCCCCCCCC(CCCCCC)COC(=O)CCCCCN(CCO)CCN(CCCCCC(=O)OCC(CCCCCC)CCCCCCCC)C1CCCC1 (stereo not shown) [Compound 8] | 0.136 | 65.15 | 6.401 | 95.8
CCCCCCC(=O)OCC(CCCCN(CCO)CCN(CCCCC(COC(=O)CCCCCC)COC(=O)CCCCCC)C1CCC1)COC(=O)CCCCCC [Compound 165] | 0.125 | 131.30 | 6.183 | 75.66
CCCCCCCCC(CCCCCCCC)COC(=O)CCCCCN(CCCCCN(CCO)CCCCC(COC(=O)CCCCCCC)COC(=O)CCCCCCC)C1CCC1 [Compound 187] | 0.083 | 88.82 | 6.226 | 94.26
CCCCCCCCC(CCCCCC)COC(=O)CCCCCN(CCCCN(CCO)CCCCC(COC(=O)CCCCCCC)COC(=O)CCCCCCC)C1CCCCCC1 (stereo not shown) [Compound 193] | 0.228 | 80.39 | 6.666 | 84.30
CCCCCCCCC(CCCCCCCC)CNC(=O)CCCCCN(CCCCN(CCO)CCCCC(COC(=O)CCCCCCC)COC(=O)CCCCCCC)C1CCC1 [Compound 186] | 0.139 | 72.88 | 7.617 | 91.69
CCCCCCCCC(CCCCCCCC)COC(=O)CCCCCN(CCO)CCN(CCCCCC(=O)OCC(CCCCCCCC)CCCCCCCC)C1CCSCC1 [Compound 30] | 0.115 | 53.56 | 6.131 | 92.9
CCCCCCCCC(CCCCCCCC)COC(=O)CCCCCN(CCO)CCN(CCCCCC(=O)OCC(CCCCCCCC)CCCCCCCC)C1CCC1 [Compound 10] | 0.168 | 70.21 | 6.176 | 86.6
CCCCCCCCCCCC(=O)OCCCCCN(CCN(CCO)CCCCCOC(=O)CC(CCCCCCCC)CCCCCCCC)C1CCCCCC1 [Compound 94] | 0.061 | 58.34 | 6.448 | 90.26
CCCCCCCCC(CCCCCCCC)COC(=O)CCCCCN(CCNc1c(NC)c(=O)c1=O)CCN(CCCCCC(=O)OCC(CCCCCCCC)CCCCCCCC)C1CCC1 [Compound 81] | 0.051 | 55.27 | 6.298 | 91.82
CCCCCCCC(=O)OCC(CCCCN(CCO)CCCCN(CCCCC(COC(=O)CCCCCCC)COC(=O)CCCCCCC)C(C)C)COC(=O)CCCCCCC [Compound 189] | 0.114 | 87.22 | 6.542 | 93.88
CCCCCCCCC(CCCCCC)COC(=O)CCCCCN(CCO)CCN(CCCCC(COC(=O)CCCCCCC)COC(=O)CCCCCCC)C1CCCCCCC1 (stereo not shown) [Compound 144] | 0.099 | 68.28 | 6.182 | 84.58
CCCCCCCCCCCOC(=O)CCCCCN(CCN(CCO)CCCCCC(=O)OCC(CCCCCCCC)CCCCCCCC)C1CCCCCC1 [Compound 107] | 0.121 | 55.62 | 6.411 | 93.22
CCCCCCCCC(CCCCCCCC)COC(=O)CCCCCN(CCO)CCN(CCCCCCOC(=O)C(CCCCCCCC)CCCCCCCC)C1CCC1 [Compound 84] | 0.097 | 59.91 | 6.117 | 91.88
CCCCCCCCOC(CCCCCN(CCO)CCN(CCCCCC(=O)NCC(CCCCCC)CCCCCCCC)C1CCCCCC1)OCCCCCCCC (stereo not shown) [Compound 202] | 0.042 | 84.35 | 6.738 | 88.47
CCCCCCCCCCCOC(=O)CCCCCN(CCN(CCO)CCCCCCC(=O)OCC(CCCCCCCC)CCCCCCCC)C1CCCCC1 [Compound 43] | 0.07 | 66.41 | 6.346 | 89.6
CCCCCCCCC(CCCCCCCC)COC(=O)OCCCCCN(CCO)CCN(CCCCCNC(=O)CC(CCCCCC)CCCCCCCC)C1CCCCCC1 (stereo not shown) [Compound 153] | 0.048 | 73.95 | 6.437 | 93.09
CCCCCCCCCCCCCCCCC(CN(CCO)CCN(CC(CCCCCCCCCCCCCCCC)OCCCCCCCC)C1CCC1)OCCCCCCCC (stereo not shown) [Compound 25] | 0.068 | 50.59 | 4.853 | 90.67

Compound | polydispersity [1] | size (nm) [1] [nm] | Apparent Pka [2] | Encapsulation Efficiency [3] [%]
CCCCCCCC(=O)OCC(CCCCN(CC=C(C)C)CCCCN(CCO)CCCCC(COC(=O)CCCCCCC)COC(=O)CCCCCCC)COC(=O)CCCCCCC [Compound 203] | 0.16 | 131.9 | 6.874 | 78.17
CCCCCCCCC(CCCCCCCC)COC(=O)CCCCCN(CCNc1c(N(C)C)c(=O)c1=O)CCN(CCCCCC(=O)OCC(CCCCCCCC)CCCCCCCC)C1CCC1 [Compound 85] | 0.096 | 67.44 | 6.126 | 93.27
CCCCCCCCC(CCCCCCCC)COC(=O)CCCCCN(CCO)CCN(CCCCCC(=O)OCC(CCCCCCCC)CCCCCCCC)C1CCOC1 (stereo not shown) [Compound 33] | 0.052 | 57.51 | 6.305 | 87.6
CCCCCCCCC(CCCCCC)CNC(=O)CCCCCN(CCOCCO)CCN(CCCCC(COC(=O)CCCCCCC)COC(=O)CCCCCCC)C1CCCCC1 (stereo not shown) [Compound 206] | 0.07 | 112.7 | 6.81 | 80.88
CCCCCCCCC(CCCCCC)CNC(=O)CCCCCCN(CCO)CCN(CCCCC(COC(=O)CCCCCCC)COC(=O)CCCCCCC)C1CCCCCCC1 (stereo not shown) [Compound 233] | 0.052 | 76.91 | 6.463 | 91.15
CCCCCCCCCCCC(=O)OCCCCCN(CCN(CCO)CCCCCOC(=O)CC(CCCCCCCC)CCCCCCCC)C1CC1 [Compound 91] | 0.115 | 64.49 | 6.042 | 87.92
CCCCCCCCC(CCCCCCCC)COC(=O)CCCCCN(CCC)CCN(CCO)CCCCCC(=O)OCC(CCCCCCCC)CCCCCCCC [Compound 32] | 0.04 | 57.09 | 6.378 | 92.1
CCCCCCCCC(CCCCCC)CNC(=O)CCCCCN(CCOCCO)CCN(CCCCC(COC(=O)CCCCCCC)COC(=O)CCCCCCC)C1CCCCCC1 (stereo not shown) [Compound 207] | 0.071 | 87.97 | 6.657 | 87.94
CCCCCCCCC(CCCCCCCC)COC(=O)CCCCCN(CCO)CCN(CCCCCOC(=O)CCCCCC(CCCCCC)CCCCCC)C1CCC1 [Compound 83] | 0.032 | 87.87 | 6.233 | 92.51
CCCCCCCCC(CCCCCCCC)COC(=O)CCCCCN(CC=C(C)C)CCN(CCCCCC(=O)OCC(CCCCCCCC)CCCCCCCC)C1CCC(O)CC1 (stereo not shown) [Compound 126] | 0.047 | 61.57 | 6.212 | 92.26
CCCCCCCCC(CCCCCCCC)COC(=O)CCOCCN(CC=C(C)C)CCN(CCO)CCOCCC(=O)OCC(CCCCCCCC)CCCCCCCC [Compound 120] | 0.043 | 75.42 | 6.546 | 94.33
CCCCCCCCC(CCCCCCCC)COC(=O)CCCCCN(CCN(CCO)CCOCCC(=O)OCC(CCCCCCCC)CCCCCCCC)C1CCC1 [Compound 110] | 0.042 | 84.07 | 6.293 | 93.11
CCCCC/C=C\CCCOC(=O)CCCCCN(CCN(CCO)CCCCCC(=O)OCC(CCCCCCCC)CCCCCCCC)C1CCCCC1 [Compound 19] | 0.046 | 80.6 | 6.269 | 90.2
CCCCCCCCC(CCCCCCCC)COC(=O)CCCCCN(CCO)CCN(CCCCCC(=O)OCC(CCCCCCCC)CCCCCCCC)Cc1ccc(C)cc1 [Compound 39] | 0.034 | 55.02 | 5.740 | 84.0
CCCCCCCCC(CCCCCCCC)CNC(=O)CCCCCN(CC=C(C)C)CCN(CCO)CCCCCC(=O)OCC(CCCCCCCC)CCCCCCCC [Compound 121] | 0.077 | 70.01 | 6.583 | 93.23
CCCCCCCCC(CCCCCC)CNC(=O)CCCCCCN(CCO)CCN(CCCCC(COC(=O)CCCCCCC)COC(=O)CCCCCCC)C1CCCCCC1 (stereo not shown) [Compound 232] | 0.031 | 77.78 | 6.567 | 92.47
CCCCCCCC/C=C\CCCCCCCC(=O)OCCCCCN(CCN(CCO)CCCCCC(=O)OCC(CCCCCCCC)CCCCCCCC)C1CCCCC1 [Compound 109] | 0.032 | 78.27 | 6.348 | 92.54
